# Data from article PMC5910208 (ACS chemical biology, 2018).
# B1: LaPhzM (Lysobacter antibioticus) (protein)
# chain: MTENNRAGAVPLSSILLQMITGYWVTQSLYVAAKLGIADLVADAPKPIEELAAKTGAKAPLLKRVLRTIASIGVFTETEPGIFGITPLAALLRSGTPDSMRPQAIMHGEEQYRAWADVLHNVQTGETAFEKEFGTSYFGYLAKHPEADRVFNEAQAGYTKQVAHAVVDAYDFSPFKTVIDIGAGYGPLLSAILRSQPEARGILFDQPHVAQAAGKRLAEAGVGDRCGTVGGDFFVEVPADGDVYILSLLLHDWDDQRSIEILRNCRRAMPAHGKLLIVELVLPEGEEPFFGKWLDLHMLVLLGAQERTADEFKTLFAASGFALERVLPTASGLSIVEARPI
# Experiments:
# [1] = biological target: T1, LaPhzNO1 (Lysobacter antibioticus, UniProt A0A172J1R7); test: HPLC / LC-MS product analysis, coupled with LaPhzS making DHP from PDC; format: biochemical; settings: NADPH, FAD; phosphate 100 mM pH 7.0, RT
# T1 sequence (A0A172J1R7 1-541): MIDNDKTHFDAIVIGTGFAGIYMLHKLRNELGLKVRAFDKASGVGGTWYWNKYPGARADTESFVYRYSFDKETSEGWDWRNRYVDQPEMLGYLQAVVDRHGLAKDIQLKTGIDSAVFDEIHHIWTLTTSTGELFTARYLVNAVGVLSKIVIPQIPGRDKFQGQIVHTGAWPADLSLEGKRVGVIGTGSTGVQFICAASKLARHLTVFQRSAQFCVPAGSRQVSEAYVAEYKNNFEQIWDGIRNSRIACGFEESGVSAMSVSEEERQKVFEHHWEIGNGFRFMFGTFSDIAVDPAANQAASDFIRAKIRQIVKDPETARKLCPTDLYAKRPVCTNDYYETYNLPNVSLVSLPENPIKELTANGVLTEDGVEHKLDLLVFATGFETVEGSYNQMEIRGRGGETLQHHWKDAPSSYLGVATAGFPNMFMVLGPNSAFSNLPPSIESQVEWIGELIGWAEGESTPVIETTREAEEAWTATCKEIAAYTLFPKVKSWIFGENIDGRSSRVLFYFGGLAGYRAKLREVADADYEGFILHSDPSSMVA
# [2] = biological target: T2, LaPhzM (Lysobacter antibioticus, UniProt A0A172J1V3); test: X-ray crystal structure, […] Å; format: binding; settings: crystallised with SAM added; SAH found in cofactor site
# T2 sequence (A0A172J1V3 1-341): B1 chain
# [3] = substrate: COc1cccc2c1nc1cccc(O)c1[n+]2[O-]; test: initial velocity by HPLC of SAH formed, Michaelis-Menten fit; format: biochemical, Lysobacter antibioticus; settings: co-substrate SAM, Tris 50 mM, pH 7.8, RT
molecule,measurement,setting,value
"Oc1cccc2nc3c(O)cccc3nc12 [compound 7, 1,6-dihydroxyphenazine]","HPLC / LC-MS product analysis, coupled with LaPhzS making DHP from PDC",[1],When the second enzyme LaPhzNO1 and another cofactor NADPH were added in the reaction mixture
Nc1ncnc2c1ncn2[C@@H]1O[C@H](CSCC[C@H](N)C(=O)O)[C@@H](O)[C@H]1O [S-adenosyl-L-homocysteine],"X-ray crystal structure, 1.42 Å",[2],"electron density around the cofactor binding site clearly indicates an S-adenosyl-L-homocysteine (SAH), instead of a SAM"
B1,Km,[3],33.6 µM
same,kcat,[3],0.01 s⁻¹
